In article PMC12032302, “A20 attenuates oxidized self-DNA-mediated inflammation in acute kidney injury” (Signal Transduction and Targeted Therapy, 2025):

Assays:
IL-1β = assay: serum IL-1β of AKI mice (ELISA); format: in vivo, mouse; settings: Cis or AA I AKI mice; DNase I 10 mg/kg i.p.
Method: Aristolochic acid I sodium salt was dissolved in PBS to 1 mg/mL and injected intraperitoneally at a dose of 10 mg/kg (body weight) every 24 h for 3 days; cisplatin was dissolved in PBS to 1.5 mg/mL for one-time intraperitoneal 25 mg/kg injection; LPS (Sigma, Cat#L2630) was dissolved in PBS to 2.5 mg/mL for one-time intraperitoneal 25 mg/kg injection; deoxyribonuclease I (DNase I, Sigma, Cat#SLBV1446) was dissolved in PBS to 1 mg/mL and injected intraperitoneally at a dose of 10 mg/kg at 4 h before cisplatin or AA I injection and every 24 h after injection. Disulfiram (MedChemExpress, CAS:97-77-8) was diluted in corn oil to 12.5 mg/mL and injected 50 mg/kg intraperitoneally every 24 h after cisplatin or AA I administration. Cu(II) (Sigma, Cat#344419) was dissolved in PBS to 30 µg/mL and administered intraperitoneally 6 h before disulfiram at a dose of 0.15 mg/kg; TNF-α (Peprotech, Cat#315-01 A) was dissolved in PBS to 10 µg/mL and injected at 100 µg/kg once through the caudal vein 24 h before cisplatin injection. […]
To measure the levels of CXCL10, IFN-β, IL-1β, and IL-18, mouse serum or cell culture medium was collected and measured by ELISA (NeoBioscience, China) according to the manufacturer’s instructions.

AKI mice [1] = assay: overall therapeutic effect in AKI mice; format: in vivo, mouse; settings: for alleviation of AKI compared with MCC950: DNase I, disulfiram vs NLRP3 inhibitor MCC950
Method: (§1) Aristolochic acid I sodium salt was dissolved in PBS to 1 mg/mL and injected intraperitoneally at a dose of 10 mg/kg (body weight) every 24 h for 3 days; cisplatin was dissolved in PBS to 1.5 mg/mL for one-time intraperitoneal 25 mg/kg injection; LPS (Sigma, Cat#L2630) was dissolved in PBS to 2.5 mg/mL for one-time intraperitoneal 25 mg/kg injection; deoxyribonuclease I (DNase I, Sigma, Cat#SLBV1446) was dissolved in PBS to 1 mg/mL and injected intraperitoneally at a dose of 10 mg/kg at 4 h before cisplatin or AA I injection and every 24 h after injection. Disulfiram (MedChemExpress, CAS:97-77-8) was diluted in corn oil to 12.5 mg/mL and injected 50 mg/kg intraperitoneally every 24 h after cisplatin or AA I administration. Cu(II) (Sigma, Cat#344419) was dissolved in PBS to 30 µg/mL and administered intraperitoneally 6 h before disulfiram at a dose of 0.15 mg/kg; TNF-α (Peprotech, Cat#315-01 A) was dissolved in PBS to 10 µg/mL and injected at 100 µg/kg once through the caudal vein 24 h before cisplatin injection. Metformin (Sigma, Cat#D150959) was dissolved in PBS to 5 mg/mL and injected intraperitoneally at a dose of 50 mg/kg 24 h before cisplatin or AA I injection and every 24 h after injection. MCC950 (MedChem Express, CAS:256373-96-3) was dissolved in PBS to 5 mg/mL and injected intraperitoneally at a dose of 50 mg/kg 12 h before cisplatin or AA I injection and every 12 h after injection; berberine (APExBIO, Cat#N1368) was dissolved in PBS to 5 mg/mL and 5 mg/kg injected intraperitoneally at 36, 24 and 12 h before cisplatin; A20-derived-peptide was dissolved in ddH2O to 3 mg/mL and injected intraperitoneally at a dose of 15 mg/kg 1 h before cisplatin. To supervise the effects of various treatments on survival time and rate, the mice were observed, and survival curves were generated. To investigate the specific mechanisms, whole blood was retrieved from the orbit, serum was separated through centrifugation on the 4th day, and the mice were then sacrificed by cervical dislocation. Mice were randomly assigned in experiments, while there was no blinding during the animal experiments.

AKI mice [2] = assay: survival of AKI mice; format: in vivo, mouse; settings: n = 10 per group
Method: as §1

AKI mice [3] = assay: serum creatinine of AKI mice; format: in vivo, mouse; settings: mice following injection of cisplatin; berberine 5 mg/kg i.p.; vs PBS
Method: (§2) LPS (Sigma, Cat#L2630) was dissolved in PBS to 2.5 mg/mL for one-time intraperitoneal 25 mg/kg injection; deoxyribonuclease I (DNase I, Sigma, Cat#SLBV1446) was dissolved in PBS to 1 mg/mL and injected intraperitoneally at a dose of 10 mg/kg at 4 h before cisplatin or AA I injection and every 24 h after injection. Disulfiram (MedChemExpress, CAS:97-77-8) was diluted in corn oil to 12.5 mg/mL and injected 50 mg/kg intraperitoneally every 24 h after cisplatin or AA I administration. Cu(II) (Sigma, Cat#344419) was dissolved in PBS to 30 µg/mL and administered intraperitoneally 6 h before disulfiram at a dose of 0.15 mg/kg; TNF-α (Peprotech, Cat#315-01 A) was dissolved in PBS to 10 µg/mL and injected at 100 µg/kg once through the caudal vein 24 h before cisplatin injection. […] MCC950 (MedChem Express, CAS:256373-96-3) was dissolved in PBS to 5 mg/mL and injected intraperitoneally at a dose of 50 mg/kg 12 h before cisplatin or AA I injection and every 12 h after injection; berberine (APExBIO, Cat#N1368) was dissolved in PBS to 5 mg/mL and 5 mg/kg injected intraperitoneally at 36, 24 and 12 h before cisplatin; […] To supervise the effects of various treatments on survival time and rate, the mice were observed, and survival curves were generated. To investigate the specific mechanisms, whole blood was retrieved from the orbit, serum was separated through centrifugation on the 4th day, and the mice were then sacrificed by cervical dislocation. Mice were randomly assigned in experiments, while there was no blinding during the animal experiments. Renal function was evaluated based on serum creatinine level and histological features. Serum creatinine was determined in the Clinical Pharmacology Lab, Clinical Trial Center, WCH, SCU. The kidneys were extracted from euthanized mice, immediately fixed with 4% paraformaldehyde, and embedded in paraffin. Furthermore, the samples were cut into 5 µm thick sections. These tissue samples were subjected to hematoxylin-eosin (HE) and […] according to standard protocols with HE reagent (Biosharp, Cat#BL702B, BL703B) and Masson reagent (Servicebio, Cat#G1006-100ML). The pathological changes were detected through optical microscopy, and the tubulointerstitial injury score was determined as previously reported.

AKI mice [4] = assay: tubular injury / renal injury of AKI mice (HE histology); format: in vivo, mouse
Method: as §2

AKI mice [5] = assay: renal fibrosis of AKI mice (Masson staining); format: in vivo, mouse; settings: mice following injection of cisplatin; berberine 5 mg/kg i.p.; vs PBS
Method: LPS (Sigma, Cat#L2630) was dissolved in PBS to 2.5 mg/mL for one-time intraperitoneal 25 mg/kg injection; deoxyribonuclease I (DNase I, Sigma, Cat#SLBV1446) was dissolved in PBS to 1 mg/mL and injected intraperitoneally at a dose of 10 mg/kg at 4 h before cisplatin or AA I injection and every 24 h after injection. Disulfiram (MedChemExpress, CAS:97-77-8) was diluted in corn oil to 12.5 mg/mL and injected 50 mg/kg intraperitoneally every 24 h after cisplatin or AA I administration. Cu(II) (Sigma, Cat#344419) was dissolved in PBS to 30 µg/mL and administered intraperitoneally 6 h before disulfiram at a dose of 0.15 mg/kg; TNF-α (Peprotech, Cat#315-01 A) was dissolved in PBS to 10 µg/mL and injected at 100 µg/kg once through the caudal vein 24 h before cisplatin injection. […] Renal function was evaluated based on serum creatinine level and histological features. Serum creatinine was determined in the Clinical Pharmacology Lab, Clinical Trial Center, WCH, SCU. […] The pathological changes were detected through optical microscopy, and the tubulointerstitial injury score was determined as previously reported.

NEK7 = settings: cited from earlier work
Source text: Furthermore, we investigated the potential therapeutic medicines targeting to NEK7 and evaluated their effects on alleviating AKI. […] A ...

A20 = A20 protein expression in iBMDMs / BMDMs (immunoblot); format: cell-based, mouse
Method: (§3) For immunoblot analysis of kidney tissue, total protein lysates were prepared from renal tissue, which was ground in liquid nitrogen and then added to lysis buffer in a Total Protein Extraction Kit (Signalway Antibody, Cat#PE001). Samples were centrifuged at 12,000 rpm for 15 min at 4 °C, and the supernatant was collected immediately. For immunoblot analysis of cells, cultured cells after treatment were lysed with lysis buffer, which was premixed with protease and phosphatase inhibitors (Signalway Antibody, Cat#PE001). The samples were centrifuged at 12,000 r/min for 15 min at 4 °C, and the supernatant was collected immediately. Ultimately, both types of protein samples were then mixed with 4× Laemmli loading buffer (Bio-Rad, Cat#1610747) and denatured by boiling at 95 °C for 5 min.
(§4) Prepared protein samples were subjected to 6-15% SDS polyacrylamide gels and separated according to the protein concentrations. Then, the protein bands were transferred to polyvinylidene difluoride (PVDF) membranes by a wet transfer apparatus (Bio-Rad, USA). […] The protein bands were detected with an enhanced chemiluminescence kit (Millipore, Cat#WBKLS0500) using a gel imaging system (Bio-Rad, USA) for visualization and standardization of the amount of protein loaded. α-Tubulin was used as the internal control.

Tnfaip3 mRNA = Tnfaip3 mRNA in iBMDMs (quantitative PCR); format: cell-based, mouse; settings: ox-dsDNA90 or CDNs, BAY11-7082 1 μM, 4 h pretreated, Fig. 4j,k, n = 3
Method: Total RNA was extracted from around 1 × 10^6 cultured cells per population and purified by employing an RNA simple Total RNA Kit (TIANGEN, Cat#DP419), Following column purification, RNA was immediately reversed to cDNA by implementing the PrimeScript reverse transcription reagent kit (Takara, RR047A) according to the manufacturer’s instructions. The concentration of RNA was measured with a NanoDrop 2000 (Thermo Fisher Scientific, USA). Reverse transcription polymerase chain reaction (qRT‒PCR) was performed using SYBR Premix Ex Taq (Takara, CAT#172-5124) in an ABI7500 real-time PCR system (Applied Biosystems, CA). The primer sequences are shown in Supplementary Table 2. Relative gene expression was presented as fold changes normalized by Gapdh using the 2^−ΔΔCt method.

GSDMD cleavage in iBMDMs = assay: cleavage of GSDMD in iBMDMs after ox-self-DNA treatment (immunoblot); format: cell-based, mouse; settings: AA-DNA with or without MCC950, Fig. 3i
Method: as §3, with “Ultimately, both types of protein samples were then mixed with 4× Laemmli loading buffer (Bio-Rad, Cat#1610747) and denatured by boiling at 95 °C for 5 min.” left out
as §4, with “concentrations.” for “concentrations. Then, the protein bands were transferred to polyvinylidene difluoride (PVDF) membranes by a wet transfer apparatus (Bio-Rad, USA).”
Self-DNA was isolated from the mouse kidney tissue using a DNeasy®Blood & Tissue Kit (QIAGEN, REF#69504) according to the manufacturer’s instructions. The isolated self-DNA were mixed with PicoGreen reagent, and then detected via employing SpectraMax iD3 microplate reader (Molecular Devices), with 502 nm incident ray and 523 nm emergent light. […]

## deoxyribonuclease I [DNase I]
IL-1β
  serum level of IL-1β (in words): significantly reduced serum level of IL-1β
AKI mice [1]; DNase I 10 mg/kg i.p. 4 h before cisplatin or AA I and every 24 h after
  therapeutic effect compared to Sting-knockout mice: more pronounced compared to that in Sting^−/− mice
AKI mice [1]
  alleviation of AKI compared with MCC950: more effective in alleviating AKI than the NLRP3 inhibitor MCC950

## COc1ccc2cc3[n+](cc2c1OC)CCc1cc2c(cc1-3)OCO2 [berberine]
AKI mice [2]; mice following injection of cisplatin, berberine 5 mg/kg i.p. at 36, 24 and 12 h before, vs PBS
  survival: improved survival
AKI mice [3]
  serum creatinine (in words): decreased serum creatinine
AKI mice [4]; mice following injection of cisplatin, berberine 5 mg/kg i.p., vs PBS
  renal injury (in words): attenuated renal injury
AKI mice [5]
  renal fibrosis: decreased renal fibrosis
NEK7
  NEK7 activity (literature): inhibit NEK7 activity

## Cc1ccc(S(=O)(=O)/C=C/C#N)cc1 [BAY11-7082]
A20; iBMDMs, ox-dsDNA90 or CDNs, BAY11-7082 1 μM, 4 h pretreated, Fig. 4l
  increased expression of A20, protein level: almost completely inhibited the increased expression of A20 at both the mRNA and protein levels
A20; ox-DNA stimulation, BAY11-7082, discussion
  increased expression of A20 under ox-DNA stimulation: abrogated
Tnfaip3 mRNA
  increased expression of A20, mRNA level: almost completely inhibited the increased expression of A20 at both the mRNA and protein levels

## CCN(CC)C(=S)SSC(=S)N(CC)CC [disulfiram, Disulfiram]
AKI mice [2]; Cis or AA I mice, disulfiram 50 mg/kg i.p. every 24 h, Cu(II) 0.15 mg/kg i.p. 6 h before disulfiram
  survival: improved survival with effects comparable to those of DNase I
AKI mice [1]
  alleviation of AKI compared with MCC950: more effective in alleviating AKI than the NLRP3 inhibitor MCC950

## CC(C)(O)c1coc(S(=O)(=O)NC(=O)Nc2c3c(cc4c2CCC4)CCC3)c1 [MCC950]
AKI mice [2]; mice treated with nephrotoxic drugs (Cis, AA I), MCC950 50 mg/kg i.p. 12 h before and every 12 h after
  survival: improved the survival
AKI mice [4]; mice treated with nephrotoxic drugs (Cis, AA I), MCC950 50 mg/kg i.p.
  tubular injury (in words): attenuate tubular injury
AKI mice [1]; MCC950 50 mg/kg i.p.
  progression of AKI: significantly alleviated the progression of AKI
GSDMD cleavage in iBMDMs
  cleavage of GSDMD: significantly reduced the cleavage of GSDMD
